According to PubChem BioAssay (NCI):
“And” between values parts separate entries of the source, which are not always exact repeats. Equal entries are not always repeated.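 Where inhibition never reached the appropriate level, the endpoint shown equals the highest concentration tested. Otherwise, values were interpolated linearly from a five-concentration, 48-hour dose response in 96-well plates. The concentration for 50% growth inhibition is given as GI50. TGI denotes the concentration required for complete inhibition of growth.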

Assays:
Assay in all cases: NCI tumour cell line growth inhibition, 48 h
[1] = tested on: SK-OV-3 ovarian
[2] = tested on: SW-620 colon
[3] = tested on: NCI-H23 lung
[4] = tested on: MCF7 breast
[5] = tested on: DU-145 prostate
[6] = tested on: SF-268 CNS
[7] = tested on: SN12C renal
[8] = tested on: SF-539 CNS
[9] = tested on: SNB-78 CNS
[10] = tested on: OVCAR-4 ovarian
[11] = tested on: HCC-2998 colon
[12] = tested on: CCRF-CEM leukemia
[13] = tested on: A498 renal
[14] = tested on: LOX IMVI melanoma
[15] = tested on: SK-MEL-2 melanoma
[16] = tested on: P388/ADR leukemia
[17] = tested on: UACC-257 melanoma
[18] = tested on: P388 leukemia
[19] = tested on: COLO 205 colon
[20] = tested on: SR leukemia
[21] = tested on: HL-60(TB) leukemia
[22] = tested on: SN12K1 renal
[23] = tested on: RXF 393 renal
[24] = tested on: UACC-62 melanoma
[25] = tested on: KM12 colon
[26] = tested on: HCT-116 colon
[27] = tested on: CAKI-1 renal
[28] = tested on: T-47D breast
[29] = tested on: HT29 colon
[30] = tested on: XF 498 CNS
[31] = tested on: 786-0 renal
[32] = tested on: MOLT-4 leukemia
[33] = tested on: SK-MEL-28 melanoma
[34] = tested on: UO-31 renal
[35] = tested on: PC-3 prostate
[36] = tested on: SNB-19 CNS
[37] = tested on: K-562 leukemia
[38] = tested on: OVCAR-5 ovarian
[39] = tested on: NCI-H226 lung
[40] = tested on: ACHN renal
[41] = tested on: HCT-15 colon
[42] = tested on: MDA-MB-231 breast
[43] = tested on: SF-295 CNS
[44] = tested on: EKVX NSCLC
[45] = tested on: RPMI-8226 leukemia
[46] = tested on: U251 CNS
[47] = tested on: HOP-92 NSCLC
[48] = tested on: IGROV1 ovarian
[49] = tested on: HOP-18 NSCLC
[50] = tested on: A549 NSCLC
[51] = tested on: SK-MEL-5 melanoma
[52] = tested on: DLD-1 colon
[53] = tested on: DMS 273 small cell lung
[54] = tested on: DMS 114 small cell lung
[55] = tested on: NCI/ADR-RES ovarian
[56] = tested on: MALME-3M melanoma
[57] = tested on: MDA-N
[58] = tested on: M19-MEL melanoma
[59] = tested on: NCI-H460 lung
[60] = tested on: KM20L2 colon
[61] = tested on: SNB-75 CNS
[62] = tested on: BT-549 breast
[63] = tested on: HOP-62 NSCLC
[64] = tested on: NCI-H522 lung
[65] = tested on: TK-10 renal
[66] = tested on: M14 melanoma
[67] = tested on: MDA-MB-435
[68] = tested on: OVCAR-8 ovarian
[69] = tested on: OVCAR-3 ovarian

SMILES: CCCCCCCCCCS(=O)CC(CO)NC(=O)/C=C/c1c(C)[nH]c(=O)[nH]c1=O (configuration not stated)
- GI50 [1]: 11 µM
- TGI [1]: 12.7 µM and 32.1 µM
- GI50 [2]: 15.7 µM
- GI50 [3]: 29.5 µM
- GI50 [4]: 23.4 µM
- TGI [5]: > 100 µM
- TGI [6]: 2.01 µM
- GI50 [7]: 10.3 µM
- GI50 [8]: 14.9 µM
- TGI [9]: 5.65 µM
- TGI [10]: 1.88 µM
- GI50 [11]: 3.26 µM
- TGI [11]: 1.9 µM and 17.5 µM
- GI50 [12]: 4.08 µM
- TGI [12]: 2.41 µM and 13.2 µM
- GI50 [13]: 23.4 µM
- TGI [13]: 7.98 µM and 62.1 µM
- GI50 [14]: 13.5 µM
- TGI [14]: 10.2 µM and 27.1 µM
- GI50 [15]: 25.8 µM
- TGI [16]: 24.5 µM
- GI50 [17]: 20.4 µM
- TGI [17]: 9.58 µM and 43.7 µM
- TGI [18]: 1.62 µM
- GI50 [19]: 2.96 µM
- TGI [20]: > 100 µM
- TGI [21]: 4.16 µM
- TGI [22]: 3.9 µM
- GI50 [23]: 10 µM
- GI50 [24]: 9.8 µM
- TGI [24]: 4.08 µM and 24.5 µM
- TGI [25]: 3.27 µM
- TGI [26]: 5.61 µM and 31.9 µM
- TGI [27]: 4.2 µM and 31.1 µM
- TGI [28]: 39.6 µM
- GI50 [29]: 6.27 µM
- TGI [29]: 22.7 µM and 19.9 µM
- TGI [30]: 0.229 µM
- TGI [31]: 27 µM
- GI50 [32]: 8.74 µM
- TGI [32]: 4.68 µM and 45.5 µM
- GI50 [33]: 43.9 µM
- GI50 [34]: 17.2 µM
- TGI [34]: 8.68 µM and 33.8 µM
- TGI [35]: 7.79 µM
- TGI [36]: 2.64 µM and 25.7 µM
- GI50 [37]: 26.4 µM
- GI50 [38]: 2.86 µM
- TGI [38]: 11.6 µM and 10.2 µM
- TGI [39]: 4.21 µM
- TGI [40]: 28.5 µM
- GI50 [41]: 4.4 µM
- TGI [41]: 14.8 µM and 21.5 µM
- TGI [42]: 15.9 µM
- GI50 [43]: 1.15 µM and 7.04 µM
- TGI [43]: 8.88 µM and 22.8 µM
- GI50 [44]: 28.3 µM
- GI50 [45]: 10.6 µM
- GI50 [46]: 17.4 µM
- GI50 [47]: 10.5 µM
- GI50 [48]: 2.77 µM
- TGI [48]: 13.5 µM and 8.81 µM
- TGI [49]: 16.2 µM
- GI50 [50]: 14.2 µM
- TGI [50]: 35.3 µM and 31.8 µM
- GI50 [51]: 18.2 µM
- TGI [51]: 4.52 µM and 40.4 µM
- TGI [52]: 5.28 µM
- TGI [53]: 4.04 µM
- TGI [54]: 1.42 µM
- GI50 [55]: 17.2 µM
- TGI [55]: 37.9 µM and 34.2 µM
- GI50 [56]: 23.9 µM
- TGI [57]: 57.5 µM
- TGI [58]: 4.3 µM
- TGI [59]: 1.97 µM and 15.3 µM
- TGI [60]: 6 µM
- TGI [61]: 1.76 µM
- TGI [62]: 25.1 µM
- GI50 [63]: 4.8 µM
- TGI [63]: 6.49 µM and 18.4 µM
- GI50 [64]: 10.6 µM
- TGI [65]: 4.02 µM
- TGI [66]: 24.4 µM
- TGI [67]: 49.1 µM

SMILES: O=C(N[C@@H](c1ccccc1)[C@@H](O)C(=O)OCc1ccc2c(c1)OCO2)c1ccccc1
- TGI [1]: > 100 µM
- TGI [2]: > 100 µM
- TGI [3]: > 100 µM
- TGI [68]: > 100 µM
- TGI [4]: > 100 µM
- TGI [6]: > 100 µM
- TGI [7]: > 100 µM
- TGI [8]: > 100 µM
- TGI [9]: > 100 µM
- TGI [10]: > 100 µM
- TGI [11]: > 100 µM
- TGI [12]: > 100 µM
- TGI [13]: > 100 µM
- TGI [14]: > 100 µM
- TGI [15]: > 100 µM
- TGI [16]: > 100 µM
- TGI [17]: > 100 µM
- TGI [18]: > 100 µM
- TGI [19]: > 100 µM
- TGI [21]: > 100 µM
- TGI [22]: > 100 µM
- TGI [23]: > 100 µM
- TGI [24]: > 100 µM
- TGI [25]: > 100 µM
- TGI [26]: > 100 µM
- TGI [27]: > 100 µM
- TGI [29]: > 100 µM
- TGI [30]: > 100 µM
- TGI [32]: > 100 µM
- TGI [33]: > 100 µM
- TGI [34]: > 100 µM
- TGI [36]: > 100 µM
- TGI [37]: > 100 µM
- TGI [38]: > 31.6 µM
- TGI [39]: > 100 µM
- TGI [41]: > 100 µM
- TGI [43]: > 100 µM
- TGI [44]: > 100 µM
- TGI [45]: > 100 µM
- TGI [46]: > 100 µM
- TGI [47]: > 100 µM
- TGI [48]: > 100 µM
- TGI [49]: > 100 µM
- TGI [50]: > 100 µM
- TGI [51]: > 100 µM
- TGI [52]: > 100 µM
- TGI [53]: > 100 µM
- TGI [54]: > 100 µM
- TGI [55]: > 100 µM
- TGI [56]: > 100 µM
- TGI [69]: > 100 µM
- TGI [58]: > 100 µM
- TGI [59]: > 100 µM
- TGI [60]: > 100 µM
- TGI [61]: > 100 µM
- TGI [63]: > 100 µM
- TGI [64]: > 100 µM
